Entries after “also recorded” stand apart in the source; their conditions may differ.
How the values were obtained:
[1] = target: T1, AMD1 S-adenosylmethionine decarboxylase (P17707) (Homo sapiens, UniProt P17707); assay: SILAC RP-ABPP; format: cell-based; settings: SILAC competition, drug in place of probe 3
T1 construct: shared by both the endogenous and recombinant forms of these proteins; endogenous in cells; host or cells: HEK293T and MDA-MB-231
T1 sequence (P17707 68-334 limits assumed): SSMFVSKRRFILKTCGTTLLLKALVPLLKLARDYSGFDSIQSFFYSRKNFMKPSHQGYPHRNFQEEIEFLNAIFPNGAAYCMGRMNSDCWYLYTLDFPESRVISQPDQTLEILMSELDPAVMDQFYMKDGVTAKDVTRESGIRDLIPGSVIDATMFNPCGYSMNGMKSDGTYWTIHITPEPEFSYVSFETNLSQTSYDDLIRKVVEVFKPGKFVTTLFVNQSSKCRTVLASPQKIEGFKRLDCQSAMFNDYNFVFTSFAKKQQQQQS
T1 sequence (P17707 1-67 limits assumed): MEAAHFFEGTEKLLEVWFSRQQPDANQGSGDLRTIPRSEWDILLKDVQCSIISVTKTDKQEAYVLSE
Description: (§1) Modifications to this protocol included using isotopically ‘light’ and ‘heavy’ SILAC cells that were also grown to near complete confluence prior to treatment. Isotopically light cells were treated with the non-clickable hydrazine probe (at the same concentration as the probe in ‘enrichment’ experiments) or the probe in the presence of 10-fold excess non-clickable hydrazine probe as a competitor (in ‘competition’ experiments). Isotopically heavy cells were treated with the probe for both types of experiments. These treatments were performed in non-SILAC media. Following treatments, cells were washed with cold PBS to remove the probe-containing media, harvested by scraping, collected by centrifugation (1,400 g, 3 min, 4° C.), washed again by resuspension in cold PBS and frozen as pellets at −80° C. until use.
(§2) The fractionated equimolar mixture of heavy and light soluble proteomes (1-1.5 mg) was diluted to 1 mL in PBS. Click reactions were scaled accordingly (except for biotin-azide) to maintain final concentrations of 0.1 mM TBTA, 1 mM CuSO4, 100 μM biotin-azide (10 mM in DMSO) and 1 mM TCEP. The mixture was vortexed and placed on a rotator at ambient temperature for 1 hour. Sequential addition of and mixture with pre-chilled methanol (MeOH, 2 mL), chloroform (CHCl3, 0.5 mL) and PBS (1 mL) on ice quenched the reaction. The precipitated proteome was centrifuged (5,000 g, 10 min, 4° C.) to fractionate the protein interphase from the organic and aqueous solvent layers. The protein pellet was washed with cold 1:1 MeOH:CHCl3 (3×1 mL), mildly sonicated in cold 4:1 MeOH:CHCl3 (2.5 mL) and pelleted once more by centrifugation (5,000 g, 10 min, 4° C.) to ensure click reagents were efficiently removed.
(§3) Heavy and light parent ion chromatograms associated with successfully identified peptides were extracted and compared using CIMAGE software as previously described^69. At least one ion of a co-eluting heavy-light pair must be accurately identified from a fragmentation event that occurred within the retention time window (±10 min) of parent ion elution. To ensure that the correct pair of peaks is quantified, chromatograms are extracted within a 10 ppm error tolerance of the predicted m/z, the signal-to-noise ratio must be >2.5 and the ‘co-elution correlation score’ and ‘envelope correlation score’ must have R^2 values ≥0.8. In addition, peptides detected as ‘singletons,’ where only the heavy ion of a peptide pair was identified, but for which passed all other filtering parameters, are given a default assigned ratio of ‘20,’ which is defined as any measured ratio that is ≥20.
(§4) To further eliminate false positives and any stochastic variability in the data, protein ratios were then determined by the median peptide ratio derived from three or more unique quantified peptides. Protein ratios that complied with these criteria from a single experiment were then averaged with ratios acquired from ≥3 replicates to provide final values for each type of experiment in both cell lines with both probes. […] Probe targets in HEK293T and MDA-MB-231 cells represent data combined from ≥3 independent biological replicates with each cell type performed with several independent batches of synthesized probes over a period of almost two years.
(§5) Two types of experiments were performed—1) direct enrichment of probe 1-labelled proteins from heavy cells in comparison to light control cells treated with the non-clickable hydrazine (3) at the same concentration as 1 (3 mM for 0.5 h); and 2) competition experiments where both heavy and light cells were treated probe 1, but light cells were also treated with 10× competitor 3 (FIG. 3A)—in two different human cell lines (HEK293T cells and the human breast cancer cell line MDA-MB-231).

LGMN Legumain (Q99538) = target: T2, LGMN Legumain (Q99538) (Homo sapiens, UniProt Q99538); assay: SILAC RP-ABPP; format: cell-based; settings: SILAC competition, drug in place of probe 3
T2 construct: shared by both the endogenous and recombinant forms of these proteins; endogenous in cells; host or cells: HEK293T and MDA-MB-231
T2 sequence (Q99538 18-323): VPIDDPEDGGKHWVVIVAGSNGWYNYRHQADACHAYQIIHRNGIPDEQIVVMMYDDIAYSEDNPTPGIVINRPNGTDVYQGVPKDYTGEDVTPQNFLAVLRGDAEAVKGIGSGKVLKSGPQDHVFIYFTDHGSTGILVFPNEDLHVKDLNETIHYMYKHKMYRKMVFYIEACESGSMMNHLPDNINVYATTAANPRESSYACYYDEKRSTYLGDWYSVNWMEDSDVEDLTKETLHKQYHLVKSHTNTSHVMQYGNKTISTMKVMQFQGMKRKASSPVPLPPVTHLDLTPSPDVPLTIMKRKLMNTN
Description: as §1, §2, §3, §4, §5

[2] = target: T3, SCRN2 Secernin-2 (Q96FV2) (Homo sapiens, UniProt Q96FV2); assay: SILAC RP-ABPP; format: cell-based; settings: SILAC competition, drug in place of probe 3
T3 construct: shared by both the endogenous and recombinant forms of these proteins; endogenous in cells; host or cells: HEK293T and MDA-MB-231
Description: as §1, §2, §3, §4, §5

[3] = target: T4, SCRN3 Secernin-3 (Q0VDG4) (Homo sapiens, UniProt Q0VDG4); assay: SILAC RP-ABPP; format: cell-based; settings: SILAC competition, drug in place of probe 3
T4 construct: shared by both the endogenous and recombinant forms of these proteins; endogenous in cells; host or cells: HEK293T and MDA-MB-231
T4 sequence (Q0VDG4 6-424): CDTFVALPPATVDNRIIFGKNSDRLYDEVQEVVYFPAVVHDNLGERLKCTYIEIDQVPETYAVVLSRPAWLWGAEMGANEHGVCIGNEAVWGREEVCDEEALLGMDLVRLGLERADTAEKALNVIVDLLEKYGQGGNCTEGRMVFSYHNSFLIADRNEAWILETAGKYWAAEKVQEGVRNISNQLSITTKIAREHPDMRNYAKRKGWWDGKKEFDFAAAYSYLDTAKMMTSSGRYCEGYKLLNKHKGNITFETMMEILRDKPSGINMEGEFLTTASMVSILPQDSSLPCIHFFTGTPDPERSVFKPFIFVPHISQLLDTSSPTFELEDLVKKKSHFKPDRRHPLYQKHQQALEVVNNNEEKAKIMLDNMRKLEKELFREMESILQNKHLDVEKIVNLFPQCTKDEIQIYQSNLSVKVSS
Description: as §1, §2, §3, §4, §5

HEK293T cells = assay: gel-based in situ probe labelling (rhodamine-azide, in-gel fluorescence); format: cell-based, human; settings: probe 1 3 mM, 30 min; dihydrochloride
Description: For gel-based experiments, cells were plated and grown to near complete confluence at the time of treatment. Cells were washed with cold phosphate buffered saline (PBS, pH 7.4) and replenished with serum-free DMEM (˜15% of normal passage volume, e.g. a 10 cm plate normally passaged with 10 mL media received 1.5 mL) supplemented with 10 mM Na-HEPES buffer (pH 7.5). Unless otherwise indicated, cells were incubated with probes (3 mM and 1 mM for probes 1 and 2, respectively) in the absence or presence of 10-fold excess non-clickable competitor probes (30 mM and 10 mM for 3 and 4, respectively) for 0.5 hour at 37° C. When applicable, probe and competitor were premixed before co-administering to the cells.
The cells were lysed, and the cell proteomes were conjugated to a rhodamine-azide (Rh—N3) reporter tag.
(§6) Soluble proteomes from treated cells were diluted to 1 mg/mL. To each sample (50 μL), a freshly prepared “click” or CuAAC reagent mixture (6 μL) containing 0.1 mM tris(benzyltriazolylmethyl)amine (TBTA) (3 μL/sample, 1.7 mM in 4:1 DMSO:t-BuOH), 1 mM CuSO4 (1 μL/sample, 50 mM in H2O), 25 μM azide-rhodamine (1 μL/sample, 1.25 mM in DMSO), and freshly prepared 1 mM tris(2-carboxyethyl)phosphine (TCEP) (1 μL/sample, 50 mM in PBS or H2O) was added to conjugate the fluorophore to probe-labelled proteins. TBTA was purchased from TCI and azide-rhodamine was synthesized as previously described^64. Upon addition of the click mixture, each reaction was immediately mixed by vortexing and then allowed to react at ambient temperature for 1 hour before quenching the reactions with SDS loading buffer (4× stock, 17 μL). Proteins (˜25 μg total protein loaded per gel lane) were resolved by SDS-PAGE (10% acrylamide) and visualized by in-gel fluorescence scanning on a Hitachi FMBIO-II or BioRad ChemiDoc MP flatbed fluorescence scanner.

AMD1 = target: T5, AMD1 (Homo sapiens, UniProt P17707); assay: gel-based RP-ABPP of transfected HEK293T cells; format: cell-based; settings: for blocking of probe labeling by excess non-clickable probe: transfected HEK293T cells
T5 construct: Full-length genes encoding three probe 1- and one probe 2-targeted proteins were amplified from a cDNA library; expressed in transfected cells; host or cells: HEK293T
T5 sequence (P17707 68-334 limits assumed): T1 sequence (P17707 68-334 limits assumed)
T5 sequence (P17707 1-67 limits assumed): T1 sequence (P17707 1-67 limits assumed)

FTO = target: T6, FTO (Homo sapiens, UniProt Q9C0B1); assay: gel-based RP-ABPP of transfected HEK293T cells; format: cell-based; settings: transfected HEK293T cells
T6 construct: Full-length genes encoding three probe 1- and one probe 2-targeted proteins were amplified from a cDNA library; expressed in transfected cells; host or cells: HEK293T
Description: as §6
(§7) Full-length genes encoding three probe 1- and one probe 2-targeted proteins were amplified from a cDNA library derived from the same low-passage HEK293T cells used for proteomic profiling. The library was generated using Ribozol RNA extraction (Amresco) and iScript reverse transcription (Bio-rad) supermix reagents. The gene products were cloned into mammalian expression vectors containing N- or C-terminal FLAG affinity tags. The gene for S-adenosyl-L-methionine decarboxylase (AMD1 or AdoMetDC) was cloned into pFLAG-CMV-sport6 (N-terminal tag) at NotI and SalI restriction sites. AMD1, Secernin-3 (SCRN3) and fat mass- and obesity-associated Fe(II)- and 20G-dependent dioxygenase (FTO) were cloned into pRK5 (C-terminal tag) at SalI and NotI restriction sites. Kelch-like ECH-associated protein-1 (Keapl) (N-terminal tag), and empty plasmids of pRK5 were gifts. Full sequences of the genes were confirmed. The proteins expressed via transient transfection in HEK293T cells contain an additional 15 amino acids appended to their N-terminal methionine residue or C-terminus (MDYKD4KLKACGR (SEQ ID NO: 43) and A3G4DYKD4K (SEQ ID NO: 44), respectively). The DYKD4K (SEQ ID NO: 42) appendage in each contains the classic FLAG epitope that permits detection by western blotting or purification by affinity chromatography. Mutants of SCRN3 were generated using QuikChange site-directed mutagenesis with primers containing the desired mutations and their respective compliments. The gene for the deletion mutant of SCRN3 with the sequence MetlCys6-SCRN3 instead of Met1 Glu2Pro3Phe4Ser5Cys6-SCRN3 (SEQ ID NO: 45) was amplified from the wild-type C-terminal FLAG-tagged construct and cloned into the same vector.
(§8) HEK293T cells were grown to ˜40% confluence under standard growth conditions passaged in the appropriate media before adding the appropriate expression vector (control cells (‘mock’) received an equal amount of the appropriate empty vector) and polyethyleneimine (PEI) ‘MAX’ (MW 40,000, Polysciences Inc.) as a transfection reagent under standard transfection conditions (3:1 vector/PEI (w/w) ratio). Cells were incubated for ˜48 h before labelling in situ. Proteomes were processed for gel- and MS-based experiments as described above and in Example 2.
(§9) After scanning fluorescence, that same gel was transferred to nitrocellulose membrane in Towbin buffer, the membrane was blocked for ˜1 hour at ambient temperature with 5% nonfat dry milk (w/v) in Tris-buffered saline with Tween 20 (TBST) and incubated with primary antibodies in the same solution overnight at 4° C. The antibodies included anti-FLAG (1:2500, F1804, Sigma), anti-AdoMetDC (1:500, sc-160951, Santa Cruz Biotechnology) and anti-His6 (1:1000, ab18184, Abcam). The blots were washed (3×5 min, TBST), incubated with secondary antibodies (1:10,000, IRDye 800CW, LICOR) in milk for 1 hour at ambient temperature, washed again (3×5 min, TBST), and visualized on a LICOR Odyssey Scanner.

KEAP1 = target: T7, KEAP1 (Homo sapiens, UniProt Q14145); assay: gel-based RP-ABPP of transfected HEK293T cells; format: cell-based; settings: transfected HEK293T cells
T7 construct: Full-length genes encoding three probe 1- and one probe 2-targeted proteins were amplified from a cDNA library; expressed in transfected cells; host or cells: HEK293T
Description: as §6, §7, §8, §9

SCRN3 = target: T8, SCRN3 (Homo sapiens, UniProt Q0VDG4); assay: gel-based RP-ABPP of transfected HEK293T cells; format: cell-based; settings: transfected HEK293T cells
T8 construct: Full-length genes encoding three probe 1- and one probe 2-targeted proteins were amplified from a cDNA library; expressed in transfected cells; host or cells: HEK293T
T8 sequence (Q0VDG4 6-424): T4 sequence (Q0VDG4 6-424)
Description: as §6, §7, §8, §9

SMILES | competition of probe 1 labelling by competitor drug [1] | competition of probe 1 labelling by competitor drug (LGMN Legumain (Q99538)) | competition of probe 1 labelling by competitor drug [2] | competition of probe 1 labelling by competitor drug [3] | competition of probe 1 labelling by co-administered non-clickable probe (HEK293T cells) | blocking of probe labeling by excess non-clickable probe (AMD1) | blocking of probe labeling by excess non-clickable probe (FTO) | blocking of probe labeling by excess non-clickable probe (KEAP1) | blocking of probe labeling by excess non-clickable probe (SCRN3) | increase of probe 1 labeling of recombinant AMD1 (AMD1; L-methionine lowered from 200 μM to 10 μM, AMD1 expression negligibly changed)
NNCCc1ccccc1 [phenelzine, reference compound] | Near complete loss of probe labelling | Near complete loss of probe labelling | Near complete loss of probe labelling | Near complete loss of probe labelling |  |  |  |  |  | 
NNC(=O)c1ccncc1 [isoniazid, reference compound] | almost no competition | almost no competition | almost no competition | almost no competition |  |  |  |  |  | 
CCCNN.Cl.Cl [probe 3, Propyl hydrazine dihydrochloride, reference compound] |  |  |  |  | suppressed by increasing concentrations; also recorded: blocks the labeling of proteins by probe 1 | blocked | blocked | blocked | blocked | 
Cl.NNc1ccccc1 [probe 4, phenyl hydrazine hydrochloride, reference compound] |  |  |  |  |  | blocked | blocked | blocked | blocked | 
CSCC[C@H](N)C(=O)O [L-methionine] |  |  |  |  |  |  |  |  |  | seven-fold

— patent US11226337B2, “Chemoproteomic profiling of protein electrophilic and oxidative post-translational modifications” (Zenagem, LLC, priority 2017, dated 2022)
